Data: patent US5985835A, “Desmopressin for nocturia, incontinence and enuresis” (priority 1997, dated 1999)
Like-named read-outs stand apart in the source and are kept apart here.

Legend:
Type in all cases: in vivo, human
[1] = system: elderly persons with increased nocturnal diuresis and decreased ADH secretion; settings: for Diuresis-day: 08-20 h; for Diuresis-night: 20-08 h
Protocol: They had no cardiac or renal disease or diabetes nor were they receiving diuretics. […] Intravenous specimens for the determination of ADH and NAP were frozen at […]. Plasma ADH was measured as arginine vasopressin by radioimmunoassay after extraction with ethanol. The reference range for plasma ADH was 1-5 pmol 1^-1 with an interassay variability of 15.1% at 0.9 pmol 1^-1 and 6.3% at 1.25 pmol 1^-1. Their nocturnal diuresis had decreased during desmopressin treatment on two successive days. After an evaluation of this study the participants were invited to take part in a two-month treatment with desmopressin ([…]®) 40 μg, given as an intranasal aerosol at 20.00 h. […] No changes in their way of life and no restriction in fluid intake was prescribed. The study was carried out after one and two months of treatment and one month after the treatment. […] Mean values of diuresis and micturitions for the 12-hour periods were calculated (Table 2). At these times also a questionnaire with 12 questions about general wellbeing and sleep was filled in (Table 1). The statistical method used a mean value ± standard deviation. The paired numerical data were analyzed with the 2-sided Student's t-test. Non-numerical data were analyzed with the x'-test.

[2] = system: patients 60-74 years of age with increased nocturnal frequency due to nocturnal polyuria
Protocol: This example provides efficacy and safety data for oral desmopressin in the treatment of increased frequency due to nocturnal polyuria in the elderly. The study started with a run-in week to establish baseline. An open dose titration, one week each of 0.1 mg, 0.2 mg and 0.4 mg, was performed and followed by a wash-out of 1-2 weeks. Then followed the double-blind, placebo controlled, cross-over part of the study using the dose selected in the dose titration. Placebo and active treatment were given for 14 days each in a randomized order. […] The diagnosis and main criteria for inclusion was a healthy adult patient between 60-74 years of age suffering from increased nocturnal frequency (≥2 nocturnal voids) and a nocturnal urinary output ≥0.9 ml/min. The desmopressin used for the study was […]®, 0.1 mg and 0.2 mg tablets. […] Study duration, including run-in and wash-out periods, was 9 weeks. The criteria for evaluation were: 1. Efficacy: the change in nocturnal diuresis (ml/min), nocturnal micturition episodes and 24-hour diuresis. 2. Safety: changes from baseline in blood pressure, S-sodium, ankle circumference and bodyweight. Incidence of adverse events. The efficacy endpoints during the double blind part of the study were subjected to statistical analysis with an ANOVA model. Sequence effect was tested with the within mean square in the ANOVA. The residuals obtained were plotted against predicted values, normal plots were also produced. The plots were examined for relationship between variance and mean non-normality. Shapiro-Wilks test was performed to assist in these assessments. The difference in effect is presented in 95% confidence intervals for least square means, placebo versus desmopressin. All tests performed used a significance level of α=5%.

[3] = system: elderly persons with increased nocturnal diuresis; assay: Pilot study of desmopressin treatment during 48 hours in elderly persons with increased nocturnal diuresis; settings: desmopressin treatment on two successive days
Protocol: ADH levels were studied in a group of elderly persons who had increased nocturnal diuresis. The levels generally were very low and a pilot study was done to determine the effect of desmopressin treatment during a period of 48 hours. Their nocturnal diuresis had decreased during desmopressin treatment on two successive days. After an evaluation of this study the participants were invited to take part in a two-month treatment with desmopressin ([…]®) 40 μg, given as an intranasal aerosol at 20.00 h. The tests consisted of 7 men (aged 72±4 years) and 14 women (aged 73±6 years). No changes in their way of life and no restriction in fluid intake was prescribed. The study was carried out after one and two months of treatment and one month after the treatment.

[4] = men, 1 month of 40 μg intranasal
[5] = men, 2 months of 40 μg intranasal
[6] = men, 3 months (one month after treatment)
[7] = women, 1 month of 40 μg intranasal
[8] = women, 2 months of 40 μg intranasal
[9] = women, 3 months (one month after treatment)
[10] = oral tablets, titrated dose 0.1-0.4 mg, 14 days, statistically significant

Potassium in serum ([1]; in vivo): did not change
Sodium in serum ([1]; in vivo): did not change
SMILES: NC(=O)CC[C@@H]1NC(=O)[C@H](Cc2ccccc2)NC(=O)[C@H](Cc2ccc(O)cc2)NC(=O)CCSSC[C@@H](C(=O)N2CCC[C@H]2C(=O)N[C@H](CCCN=C(N)N)C(=O)NCC(N)=O)NC(=O)[C@H](CC(N)=O)NC1=O [Desmopressin, 1-deamino-8-D-arginine vasopressin]
Number of women who reduced nocturnal diuresis by less than 400 ml ([1]; after one month): 9 women
Number of women who reduced nocturnal diuresis by less than 400 ml ([1]; after two months): 7 women
Total 24-hour diuresis ([1]; during the study): more or less unchanged
Decrease in average diuresis during the night, women versus men ([1]; during the treatment): twice as large in women as in men
Diuresis during the daytime ([1]; during treatment): changed insignificantly
Body weight ([1]; in vivo): did not change
Diuresis-day/night ([1]; men, 0 (before treatment)): 0.67 ± 0.20
No. of micturitions - night ([1]; men, 0 (before treatment)): 4.3 ± 1.2
Diuresis-day ([1]; men, 0 (before treatment), mean ± SD): 511 ± 85 mL
Diuresis-night ([1]; men, 0 (before treatment)): 763 ± 42 mL
Diuresis-day Deviation from initial value % ([1]; men, 1 month): -9%
Diuresis-day/night ([1]; men, 1 month): 0.83 ± 0.28
Diuresis-night Deviation from initial value % ([1]; men, 1 month): -21%
No. of micturitions - night ([1]; men, 1 month): 3.8 ± 1.7
Diuresis-day [1, 4]: 465 ± 72 mL
Diuresis-night [1, 4]: 603 ± 178 mL
Diuresis-day Deviation from initial value % ([1]; men, 2 months): 2%
Diuresis-day/night ([1]; men, 2 months): 0.91 ± 0.29
Diuresis-night Deviation from initial value % ([1]; men, 2 months): -20%
No. of micturitions - night ([1]; men, 2 months): 4.5 ± 2.0
Diuresis-day [1, 5]: 524 ± 117 mL
Diuresis-night [1, 5]: 612 ± 174 mL
Diuresis-day Deviation from initial value % [1, 6]: -14%
Diuresis-day/night [1, 6]: 0.66 ± 0.26
Diuresis-night Deviation from initial value % [1, 6]: -6%
No. of micturitions - night [1, 6]: 4.1 ± 1.6
Diuresis-day [1, 6]: 441 ± 68 mL
Diuresis-night [1, 6]: 717 ± 168 mL
Reduction of nocturnal diuresis (all the men) ([1]; men, after both one and two months): less than 400 ml
Decrease in nocturnal diuresis from the initial value ([1]; men, after one month): 21%
Decrease in nocturnal diuresis from the initial value ([1]; men, after two months): 20%
Daytime diuresis ([1]; one month after treatment, both men and women): there remained a reduction
Number of nocturnal micturitions ([1]; women versus men): women were affected most positively
Diuresis-day/night ([1]; women, 0 (before treatment)): 0.84 ± 0.40
Diuresis-day ([1]; women, 0 (before treatment)): 699 ± 368 mL
Diuresis-night ([1]; women, 0 (before treatment)): 892 ± 361 mL
Diuresis-day Deviation from initial value % ([1]; women, 1 month): 6%
Diuresis-day/night ([1]; women, 1 month): 1.46 ± 0.87
Diuresis-night Deviation from initial value % ([1]; women, 1 month): -36%
Diuresis-day [1, 7]: 746 ± 368 mL
Diuresis-night [1, 7]: 570 ± 172 mL
Diuresis-day Deviation from initial value % ([1]; women, 2 months): -4%
Diuresis-day/night ([1]; women, 2 months): 1.14 ± 0.36
Diuresis-night Deviation from initial value % ([1]; women, 2 months): -34%
Diuresis-day [1, 8]: 673 ± 257 mL
Diuresis-night [1, 8]: 592 mL
Diuresis-day Deviation from initial value % [1, 9]: -14%
Diuresis-day/night [1, 9]: 0.89 ± 0.36
Diuresis-night Deviation from initial value % [1, 9]: -17%
Diuresis-day [1, 9]: 587 ± 173 mL
Diuresis-night [1, 9]: 739 ± 260 mL
Decrease in nocturnal diuresis from the initial value ([1]; women, after one month): 36%
Decrease in nocturnal diuresis from the initial value ([1]; women, after two months): 34%
Less nocturnal diuresis than initial value ([1]; women, one month after the last day of treatment): 17%
Tolerability ([2]; in vivo, po): well tolerated
Duration of sleep between voids compared to placebo ([2]; oral tablets, titrated dose 0.1-0.4 mg, 14 days): significantly longer
Nocturnal diuresis compared to placebo [2, 10]: lower
Nocturnal voids compared to placebo [2, 10]: fewer
Nocturnal symptoms ([2]; oral tablets, elderly population): significantly decreases
Nocturnal diuresis [3]: decreased
